Tests used:
Assay type in all cases: cell-based, human
[1] = tested on: membrane GPIIb/IIIa on platelets; test: GPIIb/IIIa assay with fibrinogen-coated microparticles (Example 7); details: two minutes
Procedure: 3.7 micron (μm) carboxyl-modified paramagnetic microparticles were coated with Human Fibrinogen which interacts and binds with the complexed form of the platelet membrane surface component glycoproteins GPIIb/GPIIIa (CD41/CD61). The coated particles were re-suspended in phosphate buffered saline (PBS) buffer at 0.5% w/v.
(§1) Whole blood was obtained from a healthy volunteer and collected into a 3.0 mL blood collection tube containing 0.3 μg D-phe-pro-arg-chloromethylketone (PPACK, Dihydrochloride) and 2.1 mL Hanks' Balanced Salt supplemented with 10 mM HEPES, pH 7.4. An aliquot of this whole blood preparation was stimulated with 10 μM adenosine 5′-diphosphate (ADP) for two minutes prior to being tested in the assay. Another aliquot was stimulated with 2 μM adenosine 5′-diphosphate (ADP) for two minutes prior to being tested in the assay, and a final aliquot was not treated with ADP.
To a set of 5 μL, 10 μL, and 20 μL of each of the above three sample preparations 20 μL of FITC-labeled anti-IIb/IIIa (anti-CD41a) mouse monoclonal antibody (at 20 μg/mL) was added. The mixture was incubated for 10 minutes at room temperate at which point 50 μL of 0.5% (w/v) paramagnetic microparticles (3.7 micron (μm)) coated with Fibrinogen was added. The mixtures were incubated at room temperature for an additional 10 minutes. The microparticles were separated magnetically and the supernatant was removed. The microparticles were washed by re-suspension in 200 μL of PBS supplemented with 1% bovine serum albumin (BSA), followed by magnetic separation of the microparticles and removal of the supernatant. This sequence was repeated three times and the microparticles were re-suspended in 0.1% SDS at pH 11. The microparticles were separated magnetically and the supernatants were transferred to a 96 well plate and examined for fluorescence intensity.

[2] = tested on: membrane-bound P-selectin on platelets; test: Membrane P-Selectin assay (Example 8); details: two minutes
Procedure: as §1
To a set of 10 μL and 20 μL of each of the above three sample preparations 20 μL of FITC-labeled anti P-Selectin (anti-CD62P) rabbit polyclonal antibody (at 20 μg/mL) was added. The mixture was incubated for 10 minutes at room temperate at which point 50 μL of 0.5% (w/v) paramagnetic microparticles (3.7 micron (μm)) coated with anti-glycoprotein GP1b (CD42b) murine monoclonal antibody (Mab) was added. The mixtures were incubated at room temperature for an additional 10 minutes. The microparticles were separated magnetically and the supernatant was removed. The microparticles were washed by re-suspension in 200 μL of PBS supplemented with 1% bovine serum albumin (BSA) followed by magnetic separation of the microparticles and removal of the supernatant. This sequence was repeated three times and the microparticles were re-suspended in 0.1% SDS at pH 11. The microparticles were separated magnetically, and the supernatants were transferred to a 96 well plate and examined for fluorescence intensity.

[3] = tested on: membrane P-selectin on platelets; test: 2-Step membrane P-selectin assay in whole blood (Example 6); details: 10 μM ADP (with 1.0 uM Epinepherine where named) for two minutes, formalin treated
Procedure: Whole blood was obtained from a healthy volunteer and collected into a sample collection tube containing D-Phe-Pro-Arg-chloromethylketone (PPACK, dihydrochloride). An aliquot of whole blood was stimulated with 10 μM adenosine diphosphate (ADP) and 1.0 uM Epinepherine for two minutes and then treated for two minutes with neutral buffered formalin (1% final concentration). An additional aliquot of whole blood was stimulated with 10 μM ADP for two minutes and then treated for two minutes with neutral buffered formalin. An additional aliquot of whole blood was treated for two minutes with 1% neutral buffered formalin for two minutes without ADP stimulation.
50 μL of 0.5% (w/v) paramagnetic microparticles (3.7 micron (μm)), which were coated with anti-glycoprotein GP1b murine monoclonal antibodies (Mab), were added to 100 μL of each of the above sample preparations. The mixtures were incubated at room temperature for 10 minutes. The microparticles were separated magnetically and the supernatant was removed. The microparticles were washed by re-suspension in 200 μL of PBS supplemented with 1% BSA. The microparticles were again separated magnetically and the supernatant removed. […] The microparticles were separated magnetically and the supernatants transferred to a 96 well plate and examined for fluorescence intensity.

[4] = tested on: membrane-bound P-selectin on platelets; test: 1-Step membrane P-selectin assay in whole blood (Example 5); details: 10 μM ADP for two minutes, formalin fixed
Procedure: Whole blood was obtained from a healthy volunteer and collected into a blood collection tube containing D-phe-pro-arg-chloromethylketone (PPACK, Dihydrochloride). An aliquot of whole blood was stimulated with 10 μM adenosine diphosphate (ADP) for two minutes and then fixed for two minutes with neutral buffered formalin (1% final concentration). Another aliquot was not treated with ADP, but only fixed with 1% neutral buffered formalin for two minutes
To 100 μL of each of the above three sample preparations the following reagents were added: 50 μL of FITC-labeled anti-P-selectin (anti-CD62P) rabbit polyclonal antibody (at 20 μg/mL) and 50 μL of 0.5% (w/v) paramagnetic microparticles (3.7 micron (μm)) coated with anti-glycoprotein GPIb (CD42b) murine monoclonal antibody (Mab). The mixtures were incubated at room temperature for either 10 or 15 minutes. The microparticles were separated magnetically and the supernatant was removed. The microparticles were washed by re-suspension in 200 μL of PBS supplemented with 1% bovine serum albumin (BSA) followed by magnetic separation of the microparticles and removal of the supernatant. This sequence was repeated and the microparticles were re-suspended in 0.1% SDS at pH 11. The microparticles were separated magnetically and the supernatants were transferred to a 96 well plate and examined for fluorescence intensity.

With `Nc1ncnc2c1ncn2[C@@H]1O[C@H](COP(=O)(O)OP(=O)(O)O)[C@@H](O)[C@H]1O` [ADP, adenosine diphosphate] the “FITC Signal Detected” value ([1]; 2 uM ADP, sample volume 5 μL) was 524, the “FITC Signal Detected” value ([1]; 2 uM ADP, sample volume 10 μL) was 579 and the “FITC Signal Detected” value ([1]; 2 uM ADP, sample volume 20 μL) was 896. For the same compound, the “FITC Signal Detected” value ([1]; 10 uM ADP, sample volume 5 μL) was 525, the “FITC Signal Detected” value ([1]; 10 uM ADP, sample volume 10 μL) was 616 and the “FITC Signal Detected” value ([1]; 10 uM ADP, sample volume 20 μL) was 1031. The “FITC Signal Detected” value ([2]; 2 μM ADP, sample volume 10 μL) was 1544, the “FITC Signal Detected” value ([2]; 2 μM ADP, sample volume 20 μL) was 2390 and the “FITC Signal Detected” value ([2]; 10 μM ADP, sample volume 10 μL) was 1749. For the same compound, the “FITC Signal Detected” value ([2]; 10 μM ADP, sample volume 20 μL) was 2747, the FITC Signal Detected [3] was 17349 and the “FITC Signal Detected” value ([4]; 10 min. incubation) was 1235. The “FITC Signal Detected” value ([4]; 15 min. incubation) was 1526.

— patent US20020076833A1, “Analysis of biological samples utilizing a coated solid phase” (priority 2000, published 2002)
